This note sets out measurements from patent US20250179077A1, “QUINAZOLINE COMPOUNDS AND USES THEREOF AS INHIBITORS OF MUTANT KRAS PROTEINS” (AMGEN INC., priority 2022, published 2025).

The target in test [1] is His-tagged KRAS G12D protein (Homo sapiens, UniProt P01116, G12D). Briefly: KRAS G12D TR-FRET Assay. It counts as binding. The method, boiled down: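 His-KRAS G12D (20 nM) was preincubated with titrated compound for 30 min at RT in HEPES pH 7.4 buffer with MgCl2, 10 μM GDP. Biotin-KRPep-2d (20 nM) was then added for 1 h, followed by Eu-anti-His/streptavidin-d2 for 1 h. The 665/615 nm TR-FRET ratio was fitted 4-parameter to give IC50.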
(Time-resolved FRET reads energy transfer from a long-lived donor to a nearby acceptor.)

The target of test [2] is GDP-bound KRAS protein (aa 1-169), containing both G12D and C118A amino acid substitutions (Homo sapiens, UniProt P01116, C118A/G12D). As to the kind of experiment: KRAS G12D Coupled Nucleotide Exchange Assay. It counts as biochemical. How it is done: KRAS G12D Coupled Nucleotide Exchange Assay
Following compound pre-incubation, purified SOS protein (aa 564-1049) and GTP (Roche 10106399001) were added to the assay wells and incubated for an additional 30 min. […] The assay plates were then read on a PerkinElmer EnVision Multilabel Reader, using AlphaScreen® technology, and data were analyzed using a 4-parameter logistic model to calculate IC50 values.

Test [3] concerns Phosphorylation of ERK1/2 in AsPC-1 cells. Briefly: Phospho-ERK1/2 MSD Assay. The test is classed as cell-based. The following applies: Homo sapiens, ASPC1, 2 h, read-out: 2 h p-ERK (AsPC-1 cells), IC50, AsPC-1 cells, 2 h compound treatment. The method, boiled down:
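Phospho-ERK1/2 was quantified by MSD whole-cell lysate immunoassay in RIPA lysates made with protease/phosphatase inhibitors. A 4-parameter logistic model gave IC50.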

Sequence of His-tagged KRAS G12D protein (P01116 1-188 isoform P01116-2 G12D): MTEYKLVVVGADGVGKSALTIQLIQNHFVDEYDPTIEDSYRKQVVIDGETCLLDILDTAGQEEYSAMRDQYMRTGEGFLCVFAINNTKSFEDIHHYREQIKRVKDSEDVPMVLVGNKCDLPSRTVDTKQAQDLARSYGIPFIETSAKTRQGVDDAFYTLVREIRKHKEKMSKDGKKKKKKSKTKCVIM
Sequence of GDP-bound KRAS protein (aa 1-169), containing both G12D and C118A amino acid substitutions (P01116 1-169 isoform P01116-2 G12D/C118A): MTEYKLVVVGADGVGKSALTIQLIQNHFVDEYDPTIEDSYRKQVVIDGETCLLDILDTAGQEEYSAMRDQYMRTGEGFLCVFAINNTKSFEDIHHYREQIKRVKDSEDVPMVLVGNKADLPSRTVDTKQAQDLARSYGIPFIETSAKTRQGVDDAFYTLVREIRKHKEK

Consider `C/C=C\c1c(Cl)cc2[nH]ncc2c1-c1ccc2c(N3CCC[C@](O)(CF)C3)nc(OC[C@@]34CCCN3C[C@H](F)C4)nc2c1F` (single isomer, unassigned) [Example 109], for which the IC50 in test [1] came to 4 nM; in test [2], 4 nM; in test [3], 100 nM.
For `C/C=C\c1c(Cl)cc2[nH]ncc2c1-c1c(F)cc2c(N3CCC[C@](O)(C(F)F)C3)nc(OC[C@@]34CCCN3C[C@H](F)C4)nc2c1F` (single isomer, unassigned) [Example 112], the IC50 was 5 nM in test [1], 5 nM in test [2] and 125 nM in test [3].
In the case of `C/C=C\c1c(Cl)cc2[nH]ncc2c1-c1c(F)cc2c(N3CCC[C@]4(CCO4)C3)nc(OC[C@@]34CCCN3C[C@H](F)C4)nc2c1F` (single isomer, unassigned) [Example 113], the results for the IC50 in test [1], in test [2] and in test [3] were 3 nM, 3 nM and 41 nM, respectively.
As for `C/C=C\c1c(C)cc2[nH]ncc2c1-c1c(F)cc2c(N3CCC[C@]4(CCO4)C3)nc(OC[C@@]34CCCN3C[C@H](F)C4)nc2c1F` (single isomer, unassigned) [Example 114], the IC50 in test [1] came out at 6 nM; in test [2] it was 5 nM; in test [3], 87 nM.
In the same order, the values of `C/C=C\c1c(Cl)cc2[nH]ncc2c1-c1c(F)cc2c(N3CCC[C@@](C)(O)C3)nc(OC[C@@]34CCCN3C[C@H](F)C4)nc2c1F` (single isomer, unassigned) [Example 120] are 4 nM, 3 nM and 35 nM.
In the case of `CCc1c(F)ccc2cc(O)cc(-c3ccc4c(N5CCC[C@@](C)(O)C5)nc(OC[C@@]56CCCN5C[C@H](F)C6)nc4c3F)c12` [Example 1, (R)-1-(7-(8-Ethyl-7-fluoro-3-hydroxynaphthalen-1-yl)-8-fluoro-2-(((2R,7aS)-2-fluorotetrahydro-1H-pyrrolizin-7a(5H)-yl)methoxy)quinazolin-4-yl)-3-methylpiperidin-3-ol], the IC50 was found to be 2 nM in test [1], 3 nM in test [2] and 48 nM in test [3].
In the same order, the values of `CCc1c(F)ccc2cc(O)cc(-c3ccc4c(N5C[C@H](N)CC(F)(F)C5)nc(OC[C@@]56CCCN5C[C@H](F)C6)nc4c3F)c12` [Example 4, 4-(4-((R)-5-Amino-3,3-difluoropiperidin-1-yl)-8-fluoro-2-(((2R,7aS)-2-fluorotetrahydro-1H-pyrrolizin-7a(5H)-yl)methoxy)quinazolin-7-yl)-5-etbyl-6-fluoronaphthalen-2-ol] are 0.3 nM, 0.5 nM and 426 nM.
The corresponding values for `CCc1c(F)ccc2cc(O)cc(-c3ccc4c(N5C[C@H](NC(=O)OC)CC(F)(F)C5)nc(OC[C@@]56CCCN5C[C@H](F)C6)nc4c3F)c12` [Example 5, Methyl ((R)-1-(7-(8-ethyl-7-fluoro-3-hydroxynaphthalen-1-yl)-8-fluoro-2-(((2R,7aS)-2-fluorotetrahydro-1H-pyrrolizin-7a(5H)-yl)methoxy)quinazolin-4-yl)-5,5-difluoropiperidin-3-yl)carbamate] are 3 nM, 3 nM and 303 nM.
In the same order, the values of `C[C@@]1(O)CCCN(c2nc(OC[C@@]34CCCN3C[C@H](F)C4)nc3c(F)c(-c4cc(O)cc(Cl)c4C4CC4)c(F)cc23)C1` [Example 6, (3R)-1-(7-(3-Chloro-2-cyclopropyl-5-hydroxyphenyl)-6,8-difluoro-2-(((2R,7aS)-2-fluorotetrahydro-1H-pyrrolizin-7a(5H)-yl)methoxy)quinazolin-4-yl)-3-methylpiperidin-3-ol] are 5 nM, 4 nM and 123 nM.
In the case of `Oc1cc(Cl)c(C2CC2)c(-c2ccc3c(N4CCCOCC4)nc(OC[C@@]45CCCN4C[C@H](F)C5)nc3c2F)c1` [Example 7, 3-Chloro-4-cyclopropyl-5-(8-fluoro-2-(((2R,7a.S)-2-fluorotetrahydro-1H-pyrrolizin-7a(5H)-yl)methoxy)-4-(1,4-oxazepan-4-yl)quinazolin-7-yl)phenol], the figures for the IC50 in test [1], in test [2] and in test [3] were 12 nM, 11 nM and 812 nM, respectively.
The corresponding values for `CCc1c(F)ccc2cc(O)cc(-c3c(F)cc4c(N5CCCOCC5)nc(OC[C@@]56CCCN5C[C@H](F)C6)nc4c3F)c12` [Example 9, 4-(6,8-Difluoro-2-(((2R,7aS)-2-fluorotetrahydro-1H-pyrrolizin-7a(5H)-yl)methoxy)-4-(1,4-oxazepan-4-yl)quinazolin-7-yl)-5-ethyl-6-fluoronaphthalen-2-ol] are 4 nM, 3 nM and 259 nM.
In the same order, the values of `Oc1cc(-c2c(F)cc3c(N4CCCOCC4)nc(OC[C@@]45CCCN4C[C@H](F)C5)nc3c2F)c2ccccc2c1` [Example 10, 4-(6,8-Difluoro-2-(((2R,7aS)-2-fluorotetrahydro-1H-pyrrolizin-7a(5H)-yl)methoxy)-4-(1,4-oxazepan-4-yl)quinazolin-7-yl)naphthalen-2-ol] are 14 nM, 15 nM and 1040 nM.
For the compound `CCc1c(F)ccc2cc(O)cc(-c3c(F)cc4c(N5CCC(O)C5)nc(OC[C@@]56CCCN5C[C@H](F)C6)nc4c3F)c12` (stereo partly drawn) [Example 19, 1-(7-(8-Ethyl-7-fluoro-3-hydroxynaphthalen-1-yl)-6,8-difluoro-2-(((2R,7a.S)-2-fluorotetrahydro-1H-pyrrolizin-7a(5H)-yl)methoxy)quinazolin-4-yl)pyrrolidin-3-ol], the IC50 in test [1] came out at 111 nM; in test [2], 37 nM; in test [3] it was 7740 nM.
In the same order, the values of `CCc1c(F)ccc2cc(O)cc(-c3c(Cl)cc4c(N5CCC[C@@](C)(O)C5)nc(OC[C@@]56CCCN5C[C@H](F)C6)nc4c3F)c12` [Example 25, (3R)-1-(6-Chloro-7-(8-ethyl-7-fluoro-3-hydroxynaphthalen-1-yl)-8-fluoro-2-(((2R,7aS)-2-fluorotetrahydro-1H-pyrrolizin-7a(5H)-yl)methoxy)quinazolin-4-yl)-3-methylpiperidin-3-ol] are 4 nM, 5 nM and 146 nM.
In the same order, the values of `CCc1c(F)ccc2cc(O)cc(-c3c(O)cc4c(N5CCCOCC5)nc(OC[C@@]56CCCN5C[C@H](F)C6)nc4c3F)c12` [Example 26, 7-(8-Ethyl-7-fluoro-3-hydroxynaphthalen-1-yl)-8-fluoro-2-(((2R,7aS)-2-fluorotetrahydro-1H-pyrrolizin-7a(5H)-yl)methoxy)-4-(1,4-oxazepan-4-yl)quinazolin-6-ol] are 4 nM, 4 nM and 270 nM.
In the case of `CCc1c(F)ccc2cc(O)cc(-c3c(F)cc4c(N5CCOCC(F)(F)C5)nc(OC[C@@]56CCCN5C[C@H](F)C6)nc4c3F)c12` [Example 37, 4-(4-(6,6-Difluoro-1,4-oxazepan-4-yl)-6,8-difluoro-2-(((2R,7aS)-2-fluorotetrahydro-1H-pyrrolizin-7a(5H)-yl)methoxy)quinazolin-7-yl)-5-ethyl-6-fluoronaphthalen-2-ol], the IC50 in test [1] stood at 11 nM; in test [2], 10 nM; in test [3], 391 nM.
The corresponding values for `CCc1c(F)ccc2cc(O)cc(-c3ccc4c(N5CCCC6(CCO6)C5)nc(OC[C@@]56CCCN5C[C@H](F)C6)nc4c3F)c12` (stereo partly drawn) [Example 40, 5-Ethyl-6-fluoro-4-(8-fluoro-2-(((2R,7aS)-2-fluorotetrahydro-1H-pyrrolizin-7a(5H)-yl)methoxy)-4-(1-oxa-6-azaspiro[3.5]nonan-6-yl)quinazolin-7-yl)naphthalen-2-ol] are 6 nM, 11 nM and 53 nM.
The corresponding values for `Oc1cc(-c2ccc3c(N4CCCOCC4)nc(OC[C@]45CCCN4C[C@H](F)C5)nc3c2F)c2ccccc2c1` [Example 41, 4-(8-Fluoro-2-(((2R,7aR)-2-fluorotetrahydro-1H-pyrrolizin-7a(5H)-yl)methoxy)-4-(1,4-oxazepan-4-yl)quinazolin-7-yl)naphthalen-2-ol] are 23 nM, 23 nM and 1470 nM.
The corresponding values for `Oc1cc(-c2ccc3c(N4CCCOCC4)nc(OC[C@@]45CCCN4C[C@H](F)C5)nc3c2F)c2ccccc2c1` [Example 42, 4-(8-Fluoro-2-(((2R,7aS)-2-fluorotetrahydro-1H-pyrrolizin-7a(5H)-yl)methoxy)-4-(1,4-oxazepan-4-yl)quinazolin-7-yl)naphthalen-2-ol] are 25 nM, 14 nM and 1160 nM.
As to `Oc1cc(-c2ccc3c(N4CCCOCC4)nc(OCC45CCCN4CCC5)nc3c2F)c2ccccc2c1` [Example 43, 4-(8-Fluoro-4-(1,4-oxazepan-4-yl)-2-((tetrahydro-1H-pyrrolizin-7a(5H)-yl)methoxy)quinazolin-7-yl)naphthalen-2-ol], the values for the IC50 in test [1], in test [2] and in test [3] were 22 nM, 13 nM and 1670 nM, respectively.

The IC50 is the concentration needed to halve the response being measured.
